target: p38-α kinase (Homo sapiens, UniProt Q16539); assay: Human whole blood assay for p38 kinase inhibition, diluted (1:10) whole blood, LPS-induced TNF-α by ELISA; assay type: cell-based; conditions: LPS-stimulated TNF-α production
Procedure: For each of the assay procedures described below, the TNF-α production correlates to the activity of p38-α kinase.
A. Human Whole Blood Assay for p38 Kinase Inhibition
Venous blood is collected from healthy male volunteers into a heparinized syringe and is used within 2 hours of collection. Test compounds are dissolved in 100% DMSO and 1 μl aliquots of drug concentrations ranging from 0 to 1 mM are dispensed into quadruplicate wells of a 24-well microtiter plate (Nunclon Delta SI, Applied Scientific, So. San Francisco, Calif.). Whole blood is added at a volume of 1 ml/well and the mixture is incubated for 15 minutes with constant shaking (Titer Plate Shaker, Lab-Line Instruments, Inc., Melrose Park, Ill.) at a humidified atmosphere of 5% CO2 at 37° C. Whole blood is cultured either undiluted or at a final dilution of 1:10 with RPMI 1640 (Gibco 31800+NaHCO3, Life Technologies, Rockville, Md. and Scios, Inc., Sunnyvale, Calif.). At the end of the incubation period, 10 μl of LPS (E. coli 0111:B4, Sigma Chemical Co., St. Louis, Mo.) is added to each well to a final concentration of 1 or 0.1 μg/ml for undiluted or 1:10 diluted whole blood, respectively. The incubation is continued for an additional 2 hours. The reaction is stopped by placing the microtiter plates in an ice bath and plasma or cell-free supernates are collected by centrifugation at 3000 rpm for 10 minutes at 4° C. The plasma samples are stored at −80° C. until assayed for TNF-α levels by ELISA, following the directions supplied by Quantikine Human TNF-α assay kit (R&D Systems, Minneapolis, Minn.).
IC50 values are calculated using the concentration of inhibitor that causes a 50% decrease as compared to a control. IC50 values can be determined with curve-fitting plots available with common software packages. Approximate IC50 values can be calculated using formula: IC50 (app)=A×i/(1−A)
where A=fractional activity and i=total inhibitor concentration.
IC50 values are calculated using the concentration of inhibitor that causes a 50% decrease as compared to a control.

Chain of p38-α kinase (Q16539 whole entry): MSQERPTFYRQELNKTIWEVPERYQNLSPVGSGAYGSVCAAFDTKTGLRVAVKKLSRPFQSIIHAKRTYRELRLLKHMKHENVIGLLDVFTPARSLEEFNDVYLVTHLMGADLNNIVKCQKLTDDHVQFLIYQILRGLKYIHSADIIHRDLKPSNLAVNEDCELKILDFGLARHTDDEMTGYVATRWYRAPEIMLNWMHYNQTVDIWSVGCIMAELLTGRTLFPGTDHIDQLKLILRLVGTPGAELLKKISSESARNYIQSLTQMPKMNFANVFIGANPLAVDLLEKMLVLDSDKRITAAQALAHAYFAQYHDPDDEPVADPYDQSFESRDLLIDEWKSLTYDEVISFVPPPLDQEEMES

IC50, < 1000 nM:
C[C@H](Nc1nccc(N(Cc2ccc(F)cc2)C(=O)c2ccc3ccccc3c2)n1)c1ccccc1 [Example 70]
CC(C)N(C(=O)c1ccc2ccccc2c1)c1ccnc(N[C@@H](C)c2ccccc2)n1 [Example 73]
C[C@H](Nc1nccc(N(Cc2cccnc2)C(=O)c2ccc3ccccc3c2)n1)c1ccccc1 [Example 83]
COCCN(C(=O)c1ccc2ccccc2c1)c1ccnc(N[C@@H](C)c2ccccc2)n1 [Example 76]
C[C@H](Nc1nccc(N(C)C(=O)c2ccc3ccccc3c2)n1)c1ccccc1 [Example 77]
CCN(C(=O)c1ccc2ccccc2c1)c1ccnc(N[C@@H](C)c2ccccc2)n1 [Example 20, Naphthalene-2-carboxylic acid ethyl-[2-(1S-phenyl-ethylamino)-pyrimidin-4-yl]-amide]
CCN(C(=O)c1ccc2c(c1)CCO2)c1ccnc(N[C@@H](C)c2ccccc2)n1 [Example 84]
